Data reported in ChEMBL document CHEMBL4507273 (2021).

Key:
[1] = molecular target: T1, Alpha-1B adrenergic receptor (Homo sapiens, UniProt P35368); assay: GPCRScan assay: inhibition of Alpha1B; set-up: radioligand conc. used [nm] 0.3 – 1.0, parental cells stable HEK
T1 sequence (P35368 whole entry): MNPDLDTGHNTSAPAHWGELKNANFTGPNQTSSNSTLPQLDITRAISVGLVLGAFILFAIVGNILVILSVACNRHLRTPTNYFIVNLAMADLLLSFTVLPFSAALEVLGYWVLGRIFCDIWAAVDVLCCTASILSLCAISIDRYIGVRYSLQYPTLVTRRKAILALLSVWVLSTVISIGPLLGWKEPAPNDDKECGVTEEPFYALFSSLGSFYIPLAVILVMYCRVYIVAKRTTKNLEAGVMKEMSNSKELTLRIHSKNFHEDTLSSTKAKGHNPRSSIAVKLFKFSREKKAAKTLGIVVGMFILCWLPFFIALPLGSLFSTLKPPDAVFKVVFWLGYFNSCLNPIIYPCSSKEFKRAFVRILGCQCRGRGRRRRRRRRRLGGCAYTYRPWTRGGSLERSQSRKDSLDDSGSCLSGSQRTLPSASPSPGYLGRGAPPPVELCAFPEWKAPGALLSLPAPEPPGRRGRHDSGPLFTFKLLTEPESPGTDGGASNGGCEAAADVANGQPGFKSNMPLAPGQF

[2] = molecular target: T2, Muscarinic acetylcholine receptor M1 (Homo sapiens, UniProt P11229); assay: GPCRScan assay: inhibition of M1; set-up: radioligand conc. used [nm] 0.3 – 1.2, parental cells stable CHO
T2 sequence (P11229 whole entry): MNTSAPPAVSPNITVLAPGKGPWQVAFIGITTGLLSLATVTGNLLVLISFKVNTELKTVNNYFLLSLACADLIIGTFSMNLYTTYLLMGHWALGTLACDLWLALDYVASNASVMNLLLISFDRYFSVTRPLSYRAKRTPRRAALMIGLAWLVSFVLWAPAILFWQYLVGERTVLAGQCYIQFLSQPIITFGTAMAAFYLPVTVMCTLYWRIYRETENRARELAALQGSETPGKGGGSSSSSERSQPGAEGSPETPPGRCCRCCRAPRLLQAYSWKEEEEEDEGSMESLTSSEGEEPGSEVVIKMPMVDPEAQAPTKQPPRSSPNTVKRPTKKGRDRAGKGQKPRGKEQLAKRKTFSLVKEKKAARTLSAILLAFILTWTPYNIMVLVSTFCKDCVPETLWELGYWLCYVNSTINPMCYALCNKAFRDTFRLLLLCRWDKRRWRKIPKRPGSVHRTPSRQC

[3] = system: Tyrosine-protein kinase ABL1 (Homo sapiens), P00519 [F317L]; conditions: Compound concentration 1000.0 nM
[4] = system: Tyrosine-protein kinase ABL1 (Homo sapiens), P00519 [T315I]; conditions: Compound concentration 1000.0 nM
[5] = molecular target: Activin receptor type-1 (Homo sapiens) (UniProt Q04771); conditions: Compound concentration 1000.0 nM
[6] = molecular target: 5'-AMP-activated protein kinase catalytic subunit alpha-2 (Homo sapiens) (UniProt P54646); conditions: Compound concentration 1000.0 nM
[7] = molecular target: Tyrosine-protein kinase receptor UFO (Homo sapiens) (UniProt P30530); conditions: Compound concentration 1000.0 nM
[8] = molecular target: Cyclin-dependent kinase 11B (Homo sapiens) (UniProt P21127); conditions: Compound concentration 1000.0 nM
[9] = molecular target: Cyclin-dependent kinase 2 (Homo sapiens) (UniProt P24941); conditions: Compound concentration 1000.0 nM
[10] = molecular target: Dual specificity protein kinase CLK1 (Homo sapiens) (UniProt P49759); conditions: Compound concentration 1000.0 nM
[11] = molecular target: Megakaryocyte-associated tyrosine-protein kinase (Homo sapiens) (UniProt P42679); conditions: Compound concentration 1000.0 nM
[12] = molecular target: Death-associated protein kinase 2 (Homo sapiens) (UniProt Q9UIK4); conditions: Compound concentration 1000.0 nM
[13] = molecular target: Ephrin type-B receptor 2 (Homo sapiens) (UniProt P29323); conditions: Compound concentration 1000.0 nM
[14] = molecular target: Ephrin type-B receptor 6 (Homo sapiens) (UniProt O15197); conditions: Compound concentration 1000.0 nM
[15] = molecular target: Homeodomain-interacting protein kinase 3 (Homo sapiens) (UniProt Q9H422); conditions: Compound concentration 1000.0 nM
[16] = molecular target: Insulin-like growth factor 1 receptor (Homo sapiens) (UniProt P08069); conditions: Compound concentration 1000.0 nM
[17] = molecular target: Mitogen-activated protein kinase kinase kinase kinase 4 (Homo sapiens) (UniProt O95819); conditions: Compound concentration 1000.0 nM
[18] = molecular target: Microtubule-associated serine/threonine-protein kinase 1 (Homo sapiens) (UniProt Q9Y2H9); conditions: Compound concentration 1000.0 nM
[19] = molecular target: Dual specificity mitogen-activated protein kinase kinase 7 (Homo sapiens) (UniProt O14733); conditions: Compound concentration 1000.0 nM
[20] = molecular target: Cyclin-dependent kinase 17 (Homo sapiens) (UniProt Q00537); conditions: Compound concentration 1000.0 nM
[21] = molecular target: Protein-tyrosine kinase 2-beta (Homo sapiens) (UniProt Q14289); conditions: Compound concentration 1000.0 nM
[22] = system: Proto-oncogene tyrosine-protein kinase receptor Ret (Homo sapiens), P07949 [V804L]; conditions: Compound concentration 1000.0 nM
[23] = system: Proto-oncogene tyrosine-protein kinase receptor Ret (Homo sapiens), P07949 [V804M]; conditions: Compound concentration 1000.0 nM
[24] = molecular target: Serine/threonine-protein kinase tousled-like 2 (Homo sapiens) (UniProt Q86UE8); conditions: Compound concentration 1000.0 nM
[25] = molecular target: Activated CDC42 kinase 1 (Homo sapiens) (UniProt Q07912); conditions: Compound concentration 1000.0 nM
[26] = molecular target: Vascular endothelial growth factor receptor 2 (Homo sapiens) (UniProt P35968); conditions: Compound concentration 1000.0 nM
[27] = molecular target: 5-hydroxytryptamine receptor 1B (Homo sapiens, UniProt P28222); conditions: Compound concentration 10.0 uM
[28] = molecular target: Muscarinic acetylcholine receptor M2 (Homo sapiens) (UniProt P08172); conditions: Compound concentration 10.0 uM

Chain of Tyrosine-protein kinase receptor UFO (Homo sapiens) (P30530 whole entry): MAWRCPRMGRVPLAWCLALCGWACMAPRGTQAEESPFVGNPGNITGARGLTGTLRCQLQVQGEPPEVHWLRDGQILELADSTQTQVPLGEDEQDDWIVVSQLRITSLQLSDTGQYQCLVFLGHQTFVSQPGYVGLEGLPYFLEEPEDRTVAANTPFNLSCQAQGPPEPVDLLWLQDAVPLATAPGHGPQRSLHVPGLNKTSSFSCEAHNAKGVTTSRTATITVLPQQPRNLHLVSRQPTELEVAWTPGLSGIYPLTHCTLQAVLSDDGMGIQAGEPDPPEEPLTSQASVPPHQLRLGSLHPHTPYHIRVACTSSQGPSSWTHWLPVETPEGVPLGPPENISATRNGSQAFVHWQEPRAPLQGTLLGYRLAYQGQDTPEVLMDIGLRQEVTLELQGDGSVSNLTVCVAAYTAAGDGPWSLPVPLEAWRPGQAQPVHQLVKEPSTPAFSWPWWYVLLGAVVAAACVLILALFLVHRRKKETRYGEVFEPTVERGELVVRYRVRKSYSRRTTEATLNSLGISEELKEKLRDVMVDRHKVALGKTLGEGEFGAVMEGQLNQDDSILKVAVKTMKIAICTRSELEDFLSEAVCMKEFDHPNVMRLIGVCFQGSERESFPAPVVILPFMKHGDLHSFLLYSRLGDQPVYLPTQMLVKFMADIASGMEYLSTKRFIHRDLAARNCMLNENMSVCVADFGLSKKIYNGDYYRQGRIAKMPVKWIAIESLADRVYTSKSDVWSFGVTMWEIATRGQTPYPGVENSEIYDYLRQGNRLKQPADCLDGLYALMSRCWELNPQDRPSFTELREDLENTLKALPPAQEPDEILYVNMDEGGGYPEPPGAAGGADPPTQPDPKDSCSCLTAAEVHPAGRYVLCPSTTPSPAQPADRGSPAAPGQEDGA
Chain of Dual specificity mitogen-activated protein kinase kinase 7 (Homo sapiens) (O14733 whole entry): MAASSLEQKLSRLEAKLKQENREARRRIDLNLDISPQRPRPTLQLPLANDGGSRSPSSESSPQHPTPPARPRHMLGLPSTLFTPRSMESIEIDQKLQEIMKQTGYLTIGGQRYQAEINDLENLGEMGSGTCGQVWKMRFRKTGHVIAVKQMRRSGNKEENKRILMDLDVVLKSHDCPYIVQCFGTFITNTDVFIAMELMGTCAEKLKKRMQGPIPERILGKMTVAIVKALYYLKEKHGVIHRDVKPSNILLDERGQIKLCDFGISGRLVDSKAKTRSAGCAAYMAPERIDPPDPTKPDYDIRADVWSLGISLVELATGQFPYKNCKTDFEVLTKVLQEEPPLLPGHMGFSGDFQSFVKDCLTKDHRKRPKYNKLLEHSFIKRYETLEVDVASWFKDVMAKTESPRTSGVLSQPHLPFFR
Chain of Activated CDC42 kinase 1 (Homo sapiens) (Q07912 whole entry, looked up): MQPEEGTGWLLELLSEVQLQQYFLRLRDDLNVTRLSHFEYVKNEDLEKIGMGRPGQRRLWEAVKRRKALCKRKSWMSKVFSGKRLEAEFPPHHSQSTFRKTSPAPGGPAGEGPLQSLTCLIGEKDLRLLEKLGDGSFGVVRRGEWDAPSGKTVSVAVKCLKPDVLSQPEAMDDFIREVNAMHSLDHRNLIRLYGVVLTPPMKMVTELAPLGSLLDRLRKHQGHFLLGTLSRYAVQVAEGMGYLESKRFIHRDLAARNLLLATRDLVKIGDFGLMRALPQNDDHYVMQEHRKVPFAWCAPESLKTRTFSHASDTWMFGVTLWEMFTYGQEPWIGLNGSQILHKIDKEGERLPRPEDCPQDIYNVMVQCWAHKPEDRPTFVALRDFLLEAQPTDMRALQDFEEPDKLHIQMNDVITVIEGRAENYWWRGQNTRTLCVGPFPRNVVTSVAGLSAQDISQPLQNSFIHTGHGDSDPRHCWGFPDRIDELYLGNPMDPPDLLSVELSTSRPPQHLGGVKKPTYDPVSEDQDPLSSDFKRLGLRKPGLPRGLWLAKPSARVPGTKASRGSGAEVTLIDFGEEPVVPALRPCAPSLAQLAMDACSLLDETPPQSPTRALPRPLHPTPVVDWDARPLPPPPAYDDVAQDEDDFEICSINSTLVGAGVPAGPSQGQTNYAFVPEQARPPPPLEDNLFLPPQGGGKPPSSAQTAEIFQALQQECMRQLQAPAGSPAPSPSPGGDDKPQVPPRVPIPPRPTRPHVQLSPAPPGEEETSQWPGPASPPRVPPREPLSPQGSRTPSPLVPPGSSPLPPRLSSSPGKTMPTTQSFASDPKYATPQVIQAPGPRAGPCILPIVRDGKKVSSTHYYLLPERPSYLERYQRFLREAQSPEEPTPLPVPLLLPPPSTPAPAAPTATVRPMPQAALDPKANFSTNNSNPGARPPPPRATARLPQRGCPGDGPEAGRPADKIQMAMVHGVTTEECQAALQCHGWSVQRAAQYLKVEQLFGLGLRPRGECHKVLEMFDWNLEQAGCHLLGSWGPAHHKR
Chain of Ephrin type-B receptor 6 (Homo sapiens) (O15197 whole entry): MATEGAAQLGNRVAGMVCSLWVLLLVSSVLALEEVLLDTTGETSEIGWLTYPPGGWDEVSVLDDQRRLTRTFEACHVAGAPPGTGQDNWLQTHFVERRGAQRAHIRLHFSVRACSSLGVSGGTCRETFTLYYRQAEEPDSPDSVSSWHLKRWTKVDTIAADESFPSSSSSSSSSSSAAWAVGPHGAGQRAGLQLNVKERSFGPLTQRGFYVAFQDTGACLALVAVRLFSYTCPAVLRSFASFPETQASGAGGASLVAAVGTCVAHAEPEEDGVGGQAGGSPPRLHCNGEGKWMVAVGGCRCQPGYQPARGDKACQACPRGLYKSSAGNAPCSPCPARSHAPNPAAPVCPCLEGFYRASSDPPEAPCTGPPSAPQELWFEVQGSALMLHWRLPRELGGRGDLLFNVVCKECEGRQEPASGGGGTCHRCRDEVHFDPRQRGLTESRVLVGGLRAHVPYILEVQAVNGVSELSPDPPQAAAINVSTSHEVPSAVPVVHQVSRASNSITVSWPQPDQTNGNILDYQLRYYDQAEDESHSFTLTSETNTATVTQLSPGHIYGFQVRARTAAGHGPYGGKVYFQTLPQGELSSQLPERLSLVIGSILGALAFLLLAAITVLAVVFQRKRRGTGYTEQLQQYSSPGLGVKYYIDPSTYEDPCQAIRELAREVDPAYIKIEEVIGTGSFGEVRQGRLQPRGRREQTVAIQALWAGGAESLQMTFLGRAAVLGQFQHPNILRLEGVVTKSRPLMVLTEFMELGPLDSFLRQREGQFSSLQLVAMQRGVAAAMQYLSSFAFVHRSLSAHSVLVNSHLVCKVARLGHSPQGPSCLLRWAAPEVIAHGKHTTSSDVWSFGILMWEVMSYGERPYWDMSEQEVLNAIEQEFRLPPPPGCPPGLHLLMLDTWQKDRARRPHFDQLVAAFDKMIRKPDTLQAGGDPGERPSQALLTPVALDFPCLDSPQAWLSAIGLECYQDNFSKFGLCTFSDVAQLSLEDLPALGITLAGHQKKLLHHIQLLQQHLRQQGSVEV
Chain of Proto-oncogene tyrosine-protein kinase receptor Ret (Homo sapiens), P07949 [V804M] (P07949 whole entry V804M): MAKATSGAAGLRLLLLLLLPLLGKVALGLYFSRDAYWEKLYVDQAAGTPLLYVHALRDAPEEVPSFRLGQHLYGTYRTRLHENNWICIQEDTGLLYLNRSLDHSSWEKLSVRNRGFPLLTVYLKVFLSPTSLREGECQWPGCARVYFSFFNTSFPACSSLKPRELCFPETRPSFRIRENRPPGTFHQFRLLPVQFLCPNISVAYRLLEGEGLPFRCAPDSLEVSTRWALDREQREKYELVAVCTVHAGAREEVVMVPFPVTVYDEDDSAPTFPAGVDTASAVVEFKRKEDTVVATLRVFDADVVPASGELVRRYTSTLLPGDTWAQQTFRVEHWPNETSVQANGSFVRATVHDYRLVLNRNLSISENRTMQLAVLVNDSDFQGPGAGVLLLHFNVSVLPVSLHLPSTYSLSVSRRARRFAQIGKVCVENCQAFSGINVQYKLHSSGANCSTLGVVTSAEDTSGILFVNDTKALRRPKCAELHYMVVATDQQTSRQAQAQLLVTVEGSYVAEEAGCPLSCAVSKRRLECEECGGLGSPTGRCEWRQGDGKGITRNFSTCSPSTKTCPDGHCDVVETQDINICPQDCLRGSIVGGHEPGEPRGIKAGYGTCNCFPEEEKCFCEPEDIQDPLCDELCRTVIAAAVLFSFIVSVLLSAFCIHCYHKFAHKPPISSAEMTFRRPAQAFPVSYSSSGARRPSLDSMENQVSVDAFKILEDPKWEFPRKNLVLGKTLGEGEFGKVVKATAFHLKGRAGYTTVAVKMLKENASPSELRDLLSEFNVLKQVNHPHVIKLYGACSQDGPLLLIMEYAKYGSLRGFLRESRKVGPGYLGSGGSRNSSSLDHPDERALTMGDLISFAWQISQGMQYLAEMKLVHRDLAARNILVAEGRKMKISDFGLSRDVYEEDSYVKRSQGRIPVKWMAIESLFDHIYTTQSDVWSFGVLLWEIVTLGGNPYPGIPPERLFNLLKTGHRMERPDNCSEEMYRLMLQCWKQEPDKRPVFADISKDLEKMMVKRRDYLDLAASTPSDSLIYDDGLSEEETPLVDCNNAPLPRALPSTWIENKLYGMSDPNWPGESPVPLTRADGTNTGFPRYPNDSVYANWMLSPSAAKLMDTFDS
Chain of Activin receptor type-1 (Homo sapiens) (Q04771 whole entry): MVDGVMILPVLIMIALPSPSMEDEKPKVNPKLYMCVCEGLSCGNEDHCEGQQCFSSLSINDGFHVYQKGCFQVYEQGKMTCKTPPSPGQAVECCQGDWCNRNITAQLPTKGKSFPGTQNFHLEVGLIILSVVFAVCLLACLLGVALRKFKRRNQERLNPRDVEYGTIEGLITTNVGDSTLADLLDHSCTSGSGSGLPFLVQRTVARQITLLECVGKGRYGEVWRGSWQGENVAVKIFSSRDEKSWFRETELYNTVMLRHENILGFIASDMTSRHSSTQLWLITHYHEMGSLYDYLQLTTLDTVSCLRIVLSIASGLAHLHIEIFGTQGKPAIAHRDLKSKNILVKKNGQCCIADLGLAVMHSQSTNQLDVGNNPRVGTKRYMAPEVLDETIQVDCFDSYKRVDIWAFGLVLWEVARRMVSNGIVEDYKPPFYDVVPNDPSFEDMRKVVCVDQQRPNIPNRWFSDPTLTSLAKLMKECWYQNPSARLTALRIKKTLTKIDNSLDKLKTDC
Chain of Proto-oncogene tyrosine-protein kinase receptor Ret (Homo sapiens), P07949 [V804L] (P07949 whole entry V804L): as the sequence (P07949 whole entry V804M) above, with M804L counted along it

| SMILES | Ki ([1]; read-out: Ki) | Ki ([2]; read-out: Ki) | Ki ([2]; read-out: pKi (converted)) | residual activity [3] | residual activity [4] | residual activity [5] | residual activity [6] | residual activity [7] | residual activity [8] | residual activity [9] | residual activity [10] | residual activity [11] | residual activity [12] | residual activity [13] | residual activity [14] | residual activity [15] | residual activity [16] | residual activity [17] | residual activity [18] | residual activity [19] | further results |
| --- | --- | --- | --- | --- | --- | --- | --- | --- | --- | --- | --- | --- | --- | --- | --- | --- | --- | --- | --- | --- | --- |
| CNCc1ccccc1-c1csc([C@@H](C)Nc2nc(C)nc3cc(OC)c(OC)cc23)c1 [BAY-293] | 265 nM | 238 nM | 209 nM | 100% | 100% | 100% | 97% | 93% | 100% | 82% | 98% | 57% | 100% | 100% | 98% | 83% | 100% | 100% | 76% | 79% | residual activity [20]: 94%; residual activity [21]: 100%; residual activity [22]: 73%; residual activity [23]: 90%; residual activity [24]: 90%; residual activity [25]: 100%; residual activity [26]: 93%; inhibition [27]: 66.1%; inhibition [28]: 74.2% |
| CNCc1ccccc1-c1csc([C@H](C)Nc2nc(C)nc3cc(OC)c(OC)cc23)c1 [BAY-294] | 95.3 nM | 314 nM | 224 nM | 100% | 95% | 100% | 100% | 100% | 100% | 91% | 95% | 51% | 100% | 100% | 87% | 97% | 100% | 97% | 96% | 81% | Ki ([1]; read-out: pKi (converted)): 86.1 nM; residual activity [20]: 100%; residual activity [21]: 100%; residual activity [22]: 99%; residual activity [23]: 100%; residual activity [24]: 100%; residual activity [25]: 100%; residual activity [26]: 91%; inhibition [27]: 75%; inhibition [28]: 65.4% |
